Series [1] deals with glaucomatous beagles. The experiment in a line: Ocular irritation observations in glaucomatous beagles. The format is in vivo, beagle dog. The following applies: 6 μl of 0.03% via spray ejector device, compared to traditional eye drop treatment. On the procedure:
Active drug delivery begins on study day eight. For five days, IOP and PD measurements are taken at 0900. Immediately after 0900 measurements (time 0), each animal receives 6 μl of generic latanoprost in its assigned eye with the ejector device, followed by a second dosing 3 minutes later of an additional 6 μl (to avoid overloading the conjunctival sac). The contralateral eye receives a clinical dose (one drop) of the same commercially-available topical drug from FDA approved container (positive control). The ejector device is checked for accuracy before and after every use (Table 1). Standard measurements continue throughout each day (at 0:30, 0:45, 1, 2, 7 hrs). Possible endpoints include, but are not limited to, excessive ocular irritation, ocular damage, or other illness and injury. […]
On study days 5-9, IOP and PD measurements were taken at approximately 0900 h (time 0). Immediately after these measurements, each animal received 6 μl of 0.03% bimatoprost in its assigned eye via the spray ejector device. The contralateral eye received a clinical dose (one drop) of the same commercially available topical drug from a traditional eyedropper (positive control). The spray ejector device was checked for accuracy before and after every use and required a 10% delivered dose accuracy in pretreatment. Standard measurements continued throughout each day at 0, 1, 2, 4, and 7 hours. Possible endpoints included, but were not limited to, excessive ocular irritation, ocular damage, and other illness or injury. No statistical crossover was utilized for this study.
Ophthalmic examinations (slit lamp with fluorescein and indirect ophthalmoscopy) were performed on the eyes of each animal prior to Study Day 1. Ocular findings were scored according to the McDonald-Shadduck Score System. Ocular findings were recorded using a standardized data collection sheet. Macroscopic observations were recorded in accordance with the Draize Scale for Scoring Ocular Lesions. Animals were assigned treatments based on basic randomization prior to study day one.
Following a 7 day rest period, the eye choice was reversed. Measurements of IOP, heart rate and pupil diameter (PD) were made at 0:15, 0:30, 0:45, 1, 2, 4, 7, and 18 hours in the primary and crossover study. A veterinary ophthalmologist evaluated each test subject before and after the study for evidence of ocular side effects.
Ophthalmic examinations (slit lamp with fluorescein and indirect ophthalmoscopy) were performed on the eyes of each animal prior to study day 1. Ocular findings were scored according to the McDonald-Shadduck score system and macroscopic observations were recorded in accordance with the Draize scale for scoring ocular lesions. Ocular findings were recorded using a standardized data collection sheet.

For series [2], the system named is glaucomatous beagles. As to the kind of experiment: Intraocular pressure (IOP), TonoVet, in glaucomatous beagles. The format is in vivo, beagle dog.

“Also recorded” adds a separate entry of the source.

As for `CCNC(=O)CCC/C=C\C[C@@H]1[C@@H](/C=C/[C@@H](O)CCc2ccccc2)[C@H](O)C[C@@H]1O` [bimatoprost], the irritation result in the series on glaucomatous beagles [1] was “Markedly less irritation; also recorded: Lack of ocular irritation”. The “duration of the dose vs spray ejector device” value in the series with glaucomatous beagles [2] (0.03%, one drop by eyedropper) is on record as “greater”. Also, in the series with glaucomatous beagles [2] (6 μl of 0.03% once daily morning via spray ejector device vs one drop (26-30 μl)), the “effectiveness at lowering/controlling IOP vs traditional therapy” value is “as effective at lowering IOP and constricting the pupil as traditional therapy; also recorded: as effective at controlling IOP as is the traditional therapy”. For the same compound, the “IOP values vs baseline” value in the series on glaucomatous beagles [2] (6 μl of 0.03% via spray ejector device) is reported as “lower than baseline”.
